In patent US4738929A, “Purified culture of streptomyces galanosa” (Warner-Lambert Company, priority 1986, dated 1988):
Converted amounts (≈) assume the structure as drawn.

Legend:
[1] = tested on: Escherichia coli (PD-04863); assay: Microtiter dilution MIC, Escherichia coli (PD-04863); assay type: cell-based; details: Mueller-Hinton broth, 37° C., 16-24 hours, read-out: Minimal Inhibitory Concentration
Experimental: (§1) The compounds of the present invention and their pharmaceutically acceptable salts are useful as antimicrobial agents. The antimicrobial activity of the representative examples of compounds in accordance with the present invention against five species of gram-negative bacteria, seven species of gram-positive bacteria, four species of yeast, and two species of fungi were determined using the microtiter dilution technique. This method is described by T. B. Conrath, "Handbook of Microtiter Procedures," Dynatech Corp., Cambridge, Mass., USA (1972); and T. L. Gavan et al, "Microdilution Test Procedures," in Manual of Clinical Microbiology, E. H. Lennette, Ed., American Soc. for Microbiol., Washington, D.C., U.S.A. (1980).
(§2) Each agent is suspended in a nonaqueous solvent for several minutes to sterilize the compound or, if the compound is completely soluble in water, the aqueous solution is sterilized by passage through a 0.2-0.45 micrometer membrane filter.
(§3) Each well of a sterile 96-well microdilution tray is filled under aseptic conditions with 0.1 ml of Mueller-Hinton broth (for antibacterial tests), or yeast extract-peptone-dextrose or buffered supplemented yeast nitrogen base (for tests with yeasts or fungi).
(§4) […] of the test compound solution is added to each of the eight wells in the first row of the tray. A microdilutor apparatus is used to simultaneously mix the contents of these wells and to transfer aliquots to each succeeding row of cells to obtain a range of serially diluted solutions. The last row of wells is untreated and serves as a control.
(§5) Each well containing broth and test compound is inoculated with about ten microliters of inoculum of the test microorganism. One well in the last row of wells (which is free of test compound) is not inoculated and is used as a sterility control The trays are sealed and incubated at 37° C. for 16-24 hours (for bacteria) or at 28° C. for 36-48 hours (yeasts or fungi). During incubation, the inoculated medium is shaken at 100-140 rpm to increase contact between the microorganism cells and test compounds.
(§6) After the incubation period, each plate is evaluated by determining the lowest concentration of test compound required to inhibit the growth of the microorganism and recorded as a minimal inhibitory concentration (MIC).

Salmonella typhimurium = assay: Microtiter dilution MIC, Salmonella typhimurium; assay type: cell-based; details: Salmonella enterica, Mueller-Hinton broth, 37° C., 16-24 hours, read-out: Minimal Inhibitory Concentration
Experimental: as §1, §2, §3, §4, §5, §6

Alcaligenes viscolactis = assay: Microtiter dilution MIC, Alcaligenes viscolactis; assay type: cell-based; details: Mueller-Hinton broth, 37° C., 16-24 hours, read-out: Minimal Inhibitory Concentration
Experimental: as §1, §2, §3, §4, §5, §6

Branhamella catarrhalis = assay: Microtiter dilution MIC, Branhamella catarrhalis; assay type: cell-based; details: Moraxella catarrhalis; Mueller-Hinton broth, 37° C., 16-24 hours; read-out: Minimal Inhibitory Concentration
Experimental: as §1, §2, §3, §4, §5, §6

Pseudomonas aeruginosa = assay: Microtiter dilution MIC, Pseudomonas aeruginosa; assay type: cell-based; details: Mueller-Hinton broth, 37° C., 16-24 hours, read-out: Minimal Inhibitory Concentration
Experimental: as §1, §2, §3, §4, §5, §6

Micrococcus luteus = assay: Microtiter dilution MIC, Micrococcus luteus; assay type: cell-based; details: Mueller-Hinton broth, 37° C., 16-24 hours, read-out: Minimal Inhibitory Concentration
Experimental: as §1, §2, §3, §4, §5, §6

Staphylococcus aureus = assay: Microtiter dilution MIC, Staphylococcus aureus; assay type: cell-based; details: Mueller-Hinton broth, 37° C., 16-24 hours, read-out: Minimal Inhibitory Concentration
Experimental: as §1, §2, §3, §4, §5, §6

Streptococcus pyogenes = assay: Microtiter dilution MIC, Streptococcus pyogenes; assay type: cell-based; details: Mueller-Hinton broth, 37° C., 16-24 hours, read-out: Minimal Inhibitory Concentration
Experimental: as §1, §2, §3, §4, §5, §6

Streptococcus pneumoniae = assay: Microtiter dilution MIC, Streptococcus pneumoniae; assay type: cell-based; details: Mueller-Hinton broth, 37° C., 16-24 hours, read-out: Minimal Inhibitory Concentration
Experimental: as §1, §2, §3, §4, §5, §6

Streptococcus faecalis = assay: Microtiter dilution MIC, Streptococcus faecalis; assay type: cell-based; details: Enterococcus faecalis; Mueller-Hinton broth, 37° C., 16-24 hours; read-out: Minimal Inhibitory Concentration
Experimental: as §1, §2, §3, §4, §5, §6

Bacillus cereus = assay: Microtiter dilution MIC, Bacillus cereus; assay type: cell-based; details: Mueller-Hinton broth, 37° C., 16-24 hours, read-out: Minimal Inhibitory Concentration
Experimental: as §1, §2, §3, §4, §5, §6

Bacillus megaterium = assay: Microtiter dilution MIC, Bacillus megaterium; assay type: cell-based; details: Priestia megaterium; Mueller-Hinton broth, 37° C., 16-24 hours; read-out: Minimal Inhibitory Concentration
Experimental: as §1, §2, §3, §4, §5, §6

Saccharomyces cerevisiae = assay: Microtiter dilution MIC, Saccharomyces cerevisiae; assay type: cell-based; details: yeasts or fungi, 28° C., 36-48 hours, read-out: Minimal Inhibitory Concentration
Experimental: as §1, §2, §3, §4, §5, §6

[2] = tested on: Schizosaccharomyces pombe; assay: Microtiter dilution MIC, Schizosaccharomyces pombe; assay type: cell-based; details: yeasts or fungi, 28° C., 36-48 hours, read-out: Minimal Inhibitory Concentration
Experimental: as §1, §2, §3, §4, §5, §6

Rhodotorula aurantiaca = assay: Microtiter dilution MIC, Rhodotorula aurantiaca; assay type: cell-based; details: Buckleyzyma aurantiaca; yeasts or fungi, 28° C., 36-48 hours; read-out: Minimal Inhibitory Concentration
Experimental: as §1, §2, §3, §4, §5, §6

Torulopsis albida = assay: Microtiter dilution MIC, Torulopsis albida; assay type: cell-based; details: Naganishia albida; yeasts or fungi, 28° C., 36-48 hours; read-out: Minimal Inhibitory Concentration
Experimental: as §1, §2, §3, §4, §5, §6

Mucor paraciticus = assay: Microtiter dilution MIC, Mucor paraciticus; assay type: cell-based; details: yeasts or fungi, 28° C., 36-48 hours, read-out: Minimal Inhibitory Concentration
Experimental: as §1, §2, §3, §4, §5, §6

Rhizopus japonicus = assay: Microtiter dilution MIC, Rhizopus japonicus; assay type: cell-based; details: yeasts or fungi, 28° C., 36-48 hours, read-out: Minimal Inhibitory Concentration
Experimental: as §1, §2, §3, §4, §5, §6

[3] = tested on: L1210 murine leukemia cell line; assay: Cytotoxic activity against L1210 murine leukemia in vitro; assay type: cell-based; details: Mus musculus, 50% inhibition of growth, duplicate tests
Experimental: The antineoplastic activities of representative compounds of the present invention against the L1210 murine leukemia cell line in vitro were determined using the methods detailed by R. I. Geran et al, "Protocols for Screening Chemical Agents and Natural Products Against Animal Tumors and Other Biological Systems," 3rd Edition, Cancer Chemotherapy Reports, Part 3, Vol. 3, pages 1-87 (1972) which is incorporated herein by reference.
The IC50 values are the concentration of compound required to produce 50% inhibition of growth of the cell line.

P388 leukemia cell line = assay: In vivo antineoplastic activity against transplanted P388 leukemia in mice; details: Days 1-9
Experimental: The in vivo antineoplastic activity of representative compounds of the present invention against the transplanted P388 leukemia cell line in mice was determined in accordance with the protocol given in Geran et al, cited above. The mice were infected intraperitoneally on Day 0 and then administered the indicated doses of the test compounds on Days 1-9.

Row | SMILES | MIC [1] | MIC (Salmonella typhimurium) | MIC (Alcaligenes viscolactis) | MIC (Branhamella catarrhalis) | MIC (Pseudomonas aeruginosa) | MIC (Micrococcus luteus) | MIC (Staphylococcus aureus) | MIC (Streptococcus pyogenes) | MIC (Streptococcus pneumoniae) | MIC (Streptococcus faecalis) | MIC (Bacillus cereus) | MIC (Bacillus megaterium) | MIC (Saccharomyces cerevisiae) | MIC [2] | MIC (Rhodotorula aurantiaca) | MIC (Torulopsis albida) | MIC (Mucor paraciticus) | MIC (Rhizopus japonicus) | IC50 [3] | % T/C (P388 leukemia cell line; 25 mg/kg/injection) | further results
1 | COC(=O)c1ccc(O)c2nc3c(C=O)c(O)c(C)c(O)c3nc12 [Example 3, 6-formyl-4,7,9-trihydroxy-8-methyl-1-phenazinecarboxylic acid, methyl ester] | > 1000 µg/mL | 1000 µg/mL (≈ 3050 µM) | 333 µg/mL (≈ 1010 µM) | 111 µg/mL (≈ 338 µM) | > 1000 µg/mL | 111 µg/mL (≈ 338 µM) | > 1000 µg/mL | 111 µg/mL (≈ 338 µM) | < 0.46 µg/mL | 1000 µg/mL (≈ 3050 µM) | 333 µg/mL (≈ 1010 µM) | 1000 µg/mL (≈ 3050 µM) | > 1000 µg/mL | > 1000 µg/mL | > 1000 µg/mL | 1000 µg/mL (≈ 3050 µM) | 1000 µg/mL (≈ 3050 µM) | > 1000 µg/mL | 0.17 µg/mL (≈ 0.518 µM) | Toxic | % T/C (P388 leukemia cell line; 3.12 mg/kg/injection): 119%; % T/C (P388 leukemia cell line; 6.25 mg/kg/injection): 130%; % T/C (P388 leukemia cell line; 12.5 mg/kg/injection): 149%
2 | COC(=O)c1ccc(O)c2nc3c(C=NCCN(C)C)c(O)c(C)c(O)c3nc12 [Example 5, 6-[[[2-(dimethylamino)ethyl]imino]methyl]-4,7,9-trihydroxy-8-methyl-1-phenazinecarboxylic acid, methyl ester] | 12.3 µg/mL (≈ 30.9 µM) | 12.3 µg/mL (≈ 30.9 µM) | 4.1 µg/mL (≈ 10.3 µM) | 1.4 µg/mL (≈ 3.51 µM) | 111 µg/mL (≈ 279 µM) | 4.1 µg/mL (≈ 10.3 µM) | 12.3 µg/mL (≈ 30.9 µM) | 4.1 µg/mL (≈ 10.3 µM) | < 0.46 µg/mL | 12.3 µg/mL (≈ 30.9 µM) | 1.4 µg/mL (≈ 3.51 µM) | 4.1 µg/mL (≈ 10.3 µM) | 111 µg/mL (≈ 279 µM) | 37 µg/mL (≈ 92.9 µM) | 111 µg/mL (≈ 279 µM) | 333 µg/mL (≈ 836 µM) | 37 µg/mL (≈ 92.9 µM) | 111 µg/mL (≈ 279 µM) | 0.17 µg/mL (≈ 0.427 µM) |  | % T/C (P388 leukemia cell line; 37.5 mg/kg/injection): 104%; % T/C (P388 leukemia cell line; 75 mg/kg/injection): 113%; % T/C (P388 leukemia cell line; 150 mg/kg/injection): 137%
3 | Cc1c(O)c(C=NCCN(C)C)c2nc3c(O)ccc(C(=O)NCCN(C)C)c3nc2c1O [Example 7, N-[2-(dimethylamino)ethyl]-6-[[[2-(dimethylamino)ethyl]imino]methyl]-4,7,9-trihydroxy-8-methyl-1-phenazinecarboxamide] | 111 µg/mL (≈ 244 µM) | 333 µg/mL (≈ 733 µM) | 4.1 µg/mL (≈ 9.02 µM) | 12.3 µg/mL (≈ 27.1 µM) | < 1000 µg/mL | 37 µg/mL (≈ 81.4 µM) | 333 µg/mL (≈ 733 µM) | 111 µg/mL (≈ 244 µM) | 37 µg/mL (≈ 81.4 µM) | 1000 µg/mL (≈ 2200 µM) | 111 µg/mL (≈ 244 µM) | 333 µg/mL (≈ 733 µM) | 1000 µg/mL (≈ 2200 µM) | 111 µg/mL (≈ 244 µM) | 111 µg/mL (≈ 244 µM) | 1000 µg/mL (≈ 2200 µM) | 333 µg/mL (≈ 733 µM) | 333 µg/mL (≈ 733 µM) | 0.63 µg/mL (≈ 1.39 µM) | 126% | % T/C (P388 leukemia cell line; 50 mg/kg/injection): 140%; % T/C (P388 leukemia cell line; 100 mg/kg/injection): 152%; % T/C (P388 leukemia cell line; 200 mg/kg/injection): 166%
4 | Cc1c(O)c(C=O)c2nc3c(O)ccc(C(=O)NCCN(C)C)c3nc2c1O [Example 8, N-[2-(dimethylamino)ethyl]-6-formyl-4,7,9-trihydroxy-8-methyl-1-phenazinecarboxamide] | 1000 µg/mL (≈ 2600 µM) | 111 µg/mL (≈ 289 µM) | 4.1 µg/mL (≈ 10.7 µM) | 4.1 µg/mL (≈ 10.7 µM) | > 1000 µg/mL | 1000 µg/mL (≈ 2600 µM) | 1000 µg/mL (≈ 2600 µM) | 1000 µg/mL (≈ 2600 µM) | 1000 µg/mL (≈ 2600 µM) | > 1000 µg/mL | 37 µg/mL (≈ 96.3 µM) | 1000 µg/mL (≈ 2600 µM) | > 1000 µg/mL | > 1000 µg/mL | > 1000 µg/mL | > 1000 µg/mL | > 1000 µg/mL | > 1000 µg/mL | 0.24 µg/mL (≈ 0.624 µM) | 205% | % T/C (P388 leukemia cell line; 3.12 mg/kg/injection): 113%; % T/C (P388 leukemia cell line; 6.25 mg/kg/injection): 129%; % T/C (P388 leukemia cell line; 12.5 mg/kg/injection): 146%
